41 compounds from patent US5470833A, “Endothelin antagonistic peptide derivatives” (Banyu Pharmaceutical Co., Ltd., priority 1990, dated 1995) can be followed below.

In the assay the target is T1, endothelin receptor (membrane of smooth muscle tissue of porcine aorta) (Sus scrofa, UniProt Q29010).
T1 construct: from tissue; host or cells: porcine aorta smooth muscle, membrane fraction
T1 sequence (Q29010 21-427): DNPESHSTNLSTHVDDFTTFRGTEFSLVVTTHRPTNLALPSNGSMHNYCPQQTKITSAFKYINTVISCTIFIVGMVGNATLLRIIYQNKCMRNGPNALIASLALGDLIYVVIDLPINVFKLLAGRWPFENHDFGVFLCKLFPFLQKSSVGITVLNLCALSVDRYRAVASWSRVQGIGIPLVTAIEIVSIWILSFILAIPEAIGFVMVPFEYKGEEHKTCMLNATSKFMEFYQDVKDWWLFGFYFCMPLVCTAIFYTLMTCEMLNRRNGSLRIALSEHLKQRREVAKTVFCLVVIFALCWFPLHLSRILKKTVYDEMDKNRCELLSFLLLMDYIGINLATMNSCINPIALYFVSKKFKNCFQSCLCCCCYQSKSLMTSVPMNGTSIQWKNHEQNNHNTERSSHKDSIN
In words: Endothelin binding inhibition test (125I-endothelin-1, porcine aorta smooth muscle membrane). The note with it: read-out: 125I-endothelin-1 binding inhibition; for inhibition at 1.1 µM: 1.1 μM test compound (no mark); for inhibition at 10 µM: 10 μM test compound (marked *). Here is the method:
The smooth muscle tissue of porcine aorta was homogenized in a buffer solution of 10 mM MOPS, pH 7.4, at 4° C. by a polytron. To the homogenate, sucrose was added to a concentration of 20%, and the mixture was centrifuged at 1,000×g for 15 minutes, and the supernatant was further centrifuged at 10,000×g for 15 minutes. The supernatant thereof was further centrifuged at 90,000×g for 40 minutes. The membrane precipitate thereby obtained was suspended in a buffer solution of 5 mM HEPES/Tris, pH 7.4, at a concentration of 25 mg/ml.
Then, 16 μl of this membrane suspension was added to 340 μl of 50 mM Tris/HCl buffer, pH 7.4, containing 10 μM calcium chloride, 10 μM magnesium chloride, 0.1 mM PMSF, 1 μM pepstatin A, 2 μM leupeptin, 1 mM 1,10-phenanthroline and 0.1% bovine serum albumin. To this suspension, 4 μl of (A) endothelin-1 (for nonspecific binding; 0.2 μM as the final concentration), (B) buffer solution A (for total control binding), or (C) a test compound (1.1 μM or 10 μM as the final concentration),was added. Further, to each suspension, 40 μl of ^125 I-endothelin-1 (12000-18000 cpm) was added. These mixtures were incubated at 25° C. for 4 hours, then subjected to filtration on a glass filter GF/C and then washed with 5 mM HEPES/Tris, pH 7.4, containing 0.3% bovine serum albumin. Then, the radioactivity trapped by the glass filter was measured, and the ^125 I-endothelin-1 binding inhibition D (%) at 1.1 μM or 10 μM of the test compound was determined by the following equation. [formula] Each test was performed in triplicate.
The test compounds are indicated by Compound Nos.

Numbered stars: 1 amine (or outer) side, 2 acyl side, 3 side chain; on linkers, the order of the positions; unused ones are H or OH. Square brackets hold non-standard residues; d marks the D form. Peptide text beside a SMILES is read from it. * marks the point of attachment. d(β3hA) = C[C@@H](N)CC(=O)O; PhAc = O=C(Cc1ccccc1)*; Boc = CC(C)(C)OC(=O)*; CO = O=C([*:1])[*:2]; NHBn = c1ccc(CN*)cc1; Piv = CC(C)(C)C(=O)*; NHPh = c1ccc(N*)cc1; Dha = C=C(N)C(=O)O; NHtBu = CC(C)(C)N*; Bn = c1ccc(C*)cc1; βAla = NCCC(=O)O; NEt2 = CCN(CC)*; NHiPr = CC(C)N*

For `CC(C)C[C@H](NC(=O)OC(C)(C)C)C(=O)N[C@H](Cc1c[nH]c2ccccc12)C(=O)N[C@H](CC(=O)O)C(=O)Nc1ccccc1` [Compound 44] (Boc-Leu-[dW]-[dD]-NHPh), the inhibition at 1.1 µM was 30%.
As for `CC(C)C[C@H](NC(=O)OC(C)(C)C)C(=O)N[C@H](Cc1c[nH]c2ccccc12)C(=O)N[C@@H](CC(=O)O)C(=O)Nc1ccccc1` [Compound 45] (Boc-Leu-[dW]-Asp-NHPh), the inhibition at 10 µM turned out to be 39%.
`COC(=O)[C@@H](Cc1c[nH]cn1)NC(=O)[C@@H](Cc1c[nH]c2ccccc12)NC(=O)[C@H](CC(C)C)NC(=O)N1CCCCCC1` [Compound 47]: the inhibition at 1.1 µM is 75%.
Consider `CC(C)C[C@H](NC(=O)N1CCCCCC1)C(=O)N[C@H](Cc1c[nH]c2ccccc12)C(=O)N[C@H](Cc1c[nH]cn1)C(=O)O` [Compound 48], for which the inhibition at 1.1 µM was determined as 82%.
Take `COC(=O)[C@@H](Cc1c[nH]c2ccccc12)NC(=O)[C@@H](Cc1c[nH]c2ccccc12)NC(=O)[C@H](CC(C)C)NC(=O)N1CCCCCC1` [Compound 49]: the inhibition at 1.1 µM is 85%.
Turning to `COC(=O)C[C@@H](C)NC(=O)[C@@H](Cc1c[nH]c2ccccc12)NC(=O)[C@H](CC(C)C)NC(=O)N1CCCCCC1` [Compound 51], the inhibition at 1.1 µM stood at 68%.
The same measure, in the same setting: with `CC(C)C[C@H](NC(=O)N1CCCCCC1)C(=O)N[C@H](Cc1c[nH]c2ccccc12)C(=O)N[C@H](C)CC(=O)O` [Compound 52] the figure was 84%.
As to `CC(C)C[C@H](NC(=O)N1CCCCCC1)C(=O)N[C@H](Cc1c[nH]c2ccccc12)C(=O)NCCS(=O)(=O)O` [Compound 53], the inhibition at 1.1 µM came to 86%.
Consider `CC[C@H](C)[C@H](NC(=O)OC(C)(C)C)C(=O)N[C@H](Cc1c[nH]c2ccccc12)C(=O)NCCC(=O)O` [Compound 54] (Boc-Ile-[dW]-[βAla]-OH), for which the inhibition at 1.1 µM was 39%.
Still for that read-out and setting: the value for `CC(C)C[C@H](NC(=O)c1cccs1)C(=O)N[C@H](Cc1c[nH]c2ccccc12)C(=O)NCCC(=O)O` [Compound 55] was 54%.
The same measure, in the same setting: with `COC(=O)C(C(=O)N[C@@H](CC(C)C)C(=O)N[C@H](Cc1c[nH]c2ccccc12)C(=O)NCCC(=O)O)=C1SC=CS1` [Compound 66] the figure was 77%; with `CC(C)C[C@H](NC(=O)C=C1SC=CS1)C(=O)N[C@H](Cc1c[nH]c2ccccc12)C(=O)NCCC(=O)O` [Compound 67], 63%.
For the compound `CC(C)C[C@H](NC(=O)CC(C)(C)C)C(=O)N[C@H](Cc1c[nH]c2ccccc12)C(=O)NCCC(=O)O` [Compound 68], the inhibition at 10 µM was determined as 58%.
As for `CC(C)C[C@H](NC(=O)C(C)(C)C)C(=O)N[C@H](Cc1c[nH]c2ccccc12)C(=O)NCCC(=O)O` [Compound 69] (Piv-Leu-[dW]-[βAla]-OH), the inhibition at 10 µM came out at 71%.
`CC(C)C[C@H](NC(=O)Cc1ccccc1)C(=O)N[C@H](Cc1c[nH]c2ccccc12)C(=O)NCCC(=O)O` [Compound 70] (PhAc-Leu-[dW]-[βAla]-OH): the inhibition at 1.1 µM came to 32%.
With `CC(C)C[C@H](NC(=O)OC(C)C)C(=O)N[C@H](Cc1c[nH]c2ccccc12)C(=O)NCCC(=O)O` [Compound 71], the inhibition at 1.1 µM came out at 29%.
With `CC(C)C[C@H](NC(=O)N(C)C)C(=O)N[C@H](Cc1c[nH]c2ccccc12)C(=O)NCCC(=O)O` [Compound 73] ({NMe2-CO}-Leu-[dW]-[βAla]-OH), the inhibition at 10 µM was 61%.
For the compound `CC(C)C[C@H](NC(=O)N1C(C)(C)CCCC1(C)C)C(=O)N[C@H](Cc1c[nH]c2ccccc12)C(=O)NCCC(=O)O` [Compound 74], the inhibition at 1.1 µM was 70%.
For the compound `CC(C)C[C@H](NC(=O)N(C)c1ccccc1)C(=O)N[C@H](Cc1c[nH]c2ccccc12)C(=O)NCCC(=O)O` [Compound 76], the inhibition at 1.1 µM came out at 52%.
On the same count and under the same terms, with `CCN(CC)C(=O)N[C@@H](CC(C)C)C(=O)N[C@H](Cc1c[nH]c2ccccc12)C(=O)NCCC(=O)O` [Compound 77] ({NEt2-CO}-Leu-[dW]-[βAla]-OH) the figure was 47%; with `CC(C)C[C@H](NC(=O)NC(C)(C)C)C(=O)N[C@H](Cc1c[nH]c2ccccc12)C(=O)N[C@H](C)CC(=O)O` [Compound 80] ({NHtBu-CO}-Leu-[dW]-[d(β3hA)]-OH), 73%; with `CC(C)C[C@H](NC(=O)NC(C)(C)C)C(=O)N[C@H](Cc1c[nH]c2ccccc12)C(=O)N[C@H](Cc1c[nH]c2ccccc12)C(=O)O` [Compound 81] ({NHtBu-CO}-Leu-[dW]-[dW]-OH), 84%.
For the compound `CC(C)C[C@H](NC(=O)NC(C)(C)C)C(=O)N[C@H](Cc1c[nH]c2ccccc12)C(=O)N[C@H](Cc1c[nH]cn1)C(=O)O` [Compound 82] ({NHtBu-CO}-Leu-[dW]-[dH]-OH), the inhibition at 1.1 µM was 76%.
Same read-out and setting: the value for `CC(C)C[C@H](NC(=O)Nc1ccccc1)C(=O)N[C@H](Cc1c[nH]c2ccccc12)C(=O)NCCC(=O)O` [Compound 84] ({NHPh-CO}-Leu-[dW]-[βAla]-OH) was 70%.
Regarding `CC(C)C[C@H](NC(=O)NC(C)(C)C)C(=O)N[C@H](Cc1c[nH]c2ccccc12)C(=O)NCCC(=O)O` [Compound 85] ({NHtBu-CO}-Leu-[dW]-[βAla]-OH), the inhibition at 1.1 µM was determined as 77%.
Take `CC(C)C[C@H](NC(=O)NC(C)C)C(=O)N[C@H](Cc1c[nH]c2ccccc12)C(=O)NCC(=O)O` [Compound 89] ({NHiPr-CO}-Leu-[dW]-Gly-OH): the inhibition at 10 µM turned out to be 55%.
As for `CC(C)C[C@H](NC(=O)Nc1ccccc1)C(=O)N[C@H](Cc1c[nH]c2ccccc12)C(=O)NCC(=O)O` [Compound 90] ({NHPh-CO}-Leu-[dW]-Gly-OH), the inhibition at 1.1 µM was found to be 46%.
`CC(C)C[C@H](NC(=S)Nc1ccccc1)C(=O)N[C@H](Cc1c[nH]c2ccccc12)C(=O)NCC(=O)O` [Compound 91]: the inhibition at 10 µM is 51%.
In the case of `CCOC(=O)CCNC(=O)[C@@H](Cc1c[nH]c2ccccc12)NC(=O)[C@H](CC(C)C)NC(=O)N1CCCCCC1` [Compound 92], the inhibition at 1.1 µM came to 40%.
Take `CC(C)C[C@H](NC(=O)NC12CC3CC(CC(C3)C1)C2)C(=O)N[C@H](Cc1c[nH]c2ccccc12)C(=O)NCCC(=O)O` [Compound 113]: the inhibition at 1.1 µM worked out at 69%.
Consider `CC(C)C[C@H](NC(=O)NCc1ccccc1)C(=O)N[C@H](Cc1c[nH]c2ccccc12)C(=O)NCCC(=O)O` [Compound 115] ({NHBn-CO}-Leu-[dW]-[βAla]-OH), for which the inhibition at 1.1 µM stood at 33%.
As for `CC(C)C[C@H](NC(=O)N(C(C)C)C(C)C)C(=O)N[C@H](Cc1c[nH]c2ccccc12)C(=O)NCCC(=O)O` [Compound 119], the inhibition at 1.1 µM is 81%.
Same read-out and setting: the value for `CC(C)C[C@H](NC(=O)N1CCCCCC1)C(=O)N[C@H](Cc1cn(C=O)c2ccccc12)C(=O)N[C@H](C)CC(=O)O` [Compound 132] was 85%.
Same read-out and setting: with `C=C(NC(=O)[C@@H](Cc1c[nH]c2ccccc12)NC(=O)[C@H](CC(C)C)NC(=O)OC(C)(C)C)C(=O)O` [Compound 133] (Boc-Leu-[dW]-[Dha]-OH) the figure was 41%.
Regarding `CNC(=O)CCNC(=O)[C@@H](Cc1c[nH]c2ccccc12)NC(=O)[C@H](CC(C)C)NC(=O)N1CCCCCC1` [Compound 134], the inhibition at 1.1 µM amounted to 32%.
For the compound `CC(C)C[C@H](NC(=O)N1CCCCCC1)C(=O)N[C@H](Cc1c[nH]c2ccccc12)C(=O)NCCC(N)=O` [Compound 135], the inhibition at 1.1 µM was found to be 39%.
`CC(C)C[C@H](NC(=O)N1CCCCCC1)C(=O)N[C@H](Cc1c[nH]c2ccccc12)C(=O)NCCC(=O)N(C)C` [Compound 136]: the inhibition at 1.1 µM is 32%.
As to `CC(C)C[C@H](NC(=O)OC(C)(C)C)C(=O)N[C@H](Cc1c[nH]c2ccccc12)C(=O)N[C@H](Cc1ccc(OCc2ccccc2)cc1)C(=O)O` [Compound 137] (Boc-Leu-[dW]-[dY](Bn)-OH), the inhibition at 1.1 µM is 46%.
Take `CC(C)C[C@H](NC(=O)OC(C)(C)C)C(=O)N[C@H](Cc1c[nH]c2ccccc12)C(=O)N[C@H](Cc1ccc(O)cc1)C(=O)O` [Compound 138] (Boc-Leu-[dW]-[dY]-OH): the inhibition at 1.1 µM turned out to be 72%.
Same read-out and setting: the value for `CC(C)C[C@H](NC(=O)N1CCCCCC1)C(=O)N[C@H](CC1C(=O)Nc2ccccc21)C(=O)N[C@H](C)CC(=O)O` (some centres unmarked) [Compound 139] was 66%.
Consider `COC(CNC(=O)[C@@H](Cc1c[nH]c2ccccc12)NC(=O)[C@H](CC(C)C)NC(=O)OC(C)(C)C)C(=O)O` (some centres unmarked) [Compound 146], for which the inhibition at 10 µM stood at 70%.
